According to publication PMC3827828, “Novel angiotensin I-converting enzyme inhibitory peptides derived from an edible mushroom, Pleurotus cystidiosus O.K. Miller identified by LC-MS/MS” (BMC Complementary and Alternative Medicine, 2013):
“Also recorded” adds a separate entry of the source. Like-named read-outs stand apart in the source and are kept apart here. Each block holds one compound with its values, some of them ahead of it. Peptide text beside a SMILES is read from it.

Legend:
[1] = molecular target: T1, Angiotensin I-converting enzyme (ACE) (Homo sapiens, UniProt P12821); test: ACE inhibitory activity assay (ACE kit-WST); assay type: biochemical; conditions: synthesised peptide, absorbance 450 nm, triplicate, mean ± standard deviation
T1 construct: purchased Dojindo Laboratories ACE kit-WST
Protocol: (§1) In the current study, ACE inhibitory activity was determined using an ACE inhibitory assay kit (ACE kit-WST, Dojindo Laboratories, Kumamoto, Japan). The assay was carried out according to the protocol provided by the manufacturer. Absorbances of the reactions were measured using a Sunrise® ELISA microplate reader (Tecan, Grödig, Austria) at 450 nm. The ACE inhibitory activity of the samples was calculated using the formula given in the protocol. The concentration of the ACE inhibitor required to inhibit 50% of ACE activity under the above assay conditions was defined as the IC50.
The analysis of ACE inhibitory activity was carried out in triplicate and result was reported as mean ± standard deviation. Mean differences of ACE inhibitory activity in SEC fractions was analyzed using one-way ANOVA in Statgraphics Plus 3.0 at p < 0.05.

[2] = test system: pepsin, trypsin and chymotrypsin; test: Stability against gastrointestinal enzymes observed by SEC; assay type: in vitro ADME; conditions: 0.1 mg/ml; pepsin pH 2.0 2.5 hrs, then trypsin + chymotrypsin pH 8.0 2.5 hrs, 37°C; Biosep SEC-S2000, UV 214 nm
Protocol: (§2) The stability of the synthesised peptides against gastrointestinal proteases was assessed in vitro by the method of Wu and Ding. The peptide solution (0.1 mg/ml, 0.5 ml) was incubated with 0.5 ml of a 0.05% pepsin solution (0.1 M HCl at pH 2.0) for 2.5 hrs at 37°C. In the successive pepsin-pancreatin digestion test, the peptide solution was adjusted to pH 8.0 after pepsin digestion. Then, 0.5 ml of pancreatin solution [potassium phosphate buffer (0.1 M, pH 8.0) containing 0.025% (w/v) chymotrypsin and 0.025% (w/v) trypsin] was added to the solution. The mixture was incubated for another 2.5 hrs at 37°C. The control (without digestion) consisted of peptide solution incubated in buffer solutions (HCl and potassium phosphate buffer) and was carried out alongside the experiment. After enzymatic treatment, the pepsin solution and pepsin-pancreatin solution were boiled for 10 min to stop the digestion and then centrifuged at 10,000 rpm for 10 min. The supernatants were freeze-dried and used for the measurement of ACE inhibitory activity. The stability of the purified peptides against gastrointestinal enzymes was analysed by SEC.
Figure 4 Stability of peptide AHEPVK against gastrointestinal enzymes observed by SEC chromatograms. Separation was performed on a Biosep SEC-S2000 column (300 × 7.8 mm). Mobile phase consisted of 45% acetonitrile containing 0.1% TFA eluted at a flow rate of 1.0 ml/min. […]

[3] = molecular target: T1, Angiotensin I-converting enzyme (ACE); test: ACE inhibitory activity after simulated gastrointestinal digestion; assay type: biochemical; conditions: mean, n = 3; for inhibition at 100 µg/mL (stock): 0.1 mg/ml, pepsin 2.5 hrs, then pH 8.0, 0.025% chymotrypsin and 0.025% trypsin, another 2.5 hrs, read-out: ACE inhibitory activity after pepsin-pancreatin digestion; for inhibition at 100 µg/mL (stock) / ACE inhibitory activity after digestion by pepsin: 37°C; for ACE inhibitory activity without gastrointestinal digestion (control): peptide solution 0.1 mg/ml incubated in buffer solutions (HCl and potassium phosphate buffer); for ACE inhibitory activity after digestion by pepsin: peptide solution 0.1 mg/ml with 0.05% pepsin (0.1 M HCl, pH 2.0), 2.5 hrs
Protocol: as §1, §2
Figure 3 Effect of simulated gastrointestinal digestion on the ACE inhibitory activity of peptides AHEPVK and GPSMR. Control: The peptide solutions (0.1 mg/ml) were incubated in buffer solutions (HCl and potassium phosphate buffer). P: The peptide solutions were incubated with 0.05% pepsin solution for 2.5 hrs at 37°C. P + T + C: The peptide solutions were successively digested with pepsin for 2.5 hrs. They were further incubated in pancreatin solution for another 2.5 hrs at 37°C. The ACE inhibitory activity are expressed as mean ± standard deviation (n = 3).

[4] = test system: ACE; conditions: cited from earlier work
Protocol: Peptide LRIPVA from spinach inhibited 50% of the ACE at a concentration as low as 0.38 μM [29]. However, there were also studies reported on similar IC50 value with the current study. […] It was predicted to remain stable throughout the digestion process. […] Jimsheena and Gouda had shown the important role of stere ... || (+ 2 further places)

[5] = peptides from milk and bonita fish

T1 sequence (P12821 30-1306, species assumed): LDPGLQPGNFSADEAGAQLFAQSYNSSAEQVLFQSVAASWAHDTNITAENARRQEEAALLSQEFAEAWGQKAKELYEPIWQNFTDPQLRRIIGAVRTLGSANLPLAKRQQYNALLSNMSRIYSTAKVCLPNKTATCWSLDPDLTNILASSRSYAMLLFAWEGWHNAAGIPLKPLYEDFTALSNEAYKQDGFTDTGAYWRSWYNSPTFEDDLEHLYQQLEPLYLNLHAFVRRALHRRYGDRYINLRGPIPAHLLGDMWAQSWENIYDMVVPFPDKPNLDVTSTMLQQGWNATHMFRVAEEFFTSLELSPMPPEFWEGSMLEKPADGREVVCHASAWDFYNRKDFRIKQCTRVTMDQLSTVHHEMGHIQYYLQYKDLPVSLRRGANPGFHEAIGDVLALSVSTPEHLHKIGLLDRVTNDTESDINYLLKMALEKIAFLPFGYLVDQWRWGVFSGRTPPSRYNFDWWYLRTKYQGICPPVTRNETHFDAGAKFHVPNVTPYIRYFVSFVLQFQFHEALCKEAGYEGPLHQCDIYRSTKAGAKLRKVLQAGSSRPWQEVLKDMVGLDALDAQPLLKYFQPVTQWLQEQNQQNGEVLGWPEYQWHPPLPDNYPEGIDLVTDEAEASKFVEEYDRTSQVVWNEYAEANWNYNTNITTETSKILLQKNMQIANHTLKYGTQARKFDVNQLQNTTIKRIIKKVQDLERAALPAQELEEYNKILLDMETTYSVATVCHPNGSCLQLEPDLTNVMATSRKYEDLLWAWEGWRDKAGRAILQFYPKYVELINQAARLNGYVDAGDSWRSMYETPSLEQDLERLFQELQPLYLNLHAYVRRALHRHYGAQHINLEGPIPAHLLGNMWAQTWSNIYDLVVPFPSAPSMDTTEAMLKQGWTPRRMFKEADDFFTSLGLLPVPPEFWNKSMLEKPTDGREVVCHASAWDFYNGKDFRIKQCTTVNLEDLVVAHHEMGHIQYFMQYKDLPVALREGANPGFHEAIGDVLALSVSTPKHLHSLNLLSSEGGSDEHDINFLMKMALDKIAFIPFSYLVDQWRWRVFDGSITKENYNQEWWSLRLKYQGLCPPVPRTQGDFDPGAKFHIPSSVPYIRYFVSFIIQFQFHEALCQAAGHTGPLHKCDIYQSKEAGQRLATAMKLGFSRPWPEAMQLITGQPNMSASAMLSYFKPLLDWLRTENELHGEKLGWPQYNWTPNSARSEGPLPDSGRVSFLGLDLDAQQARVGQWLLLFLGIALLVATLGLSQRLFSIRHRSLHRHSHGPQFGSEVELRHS

IC50 [1]: 62.8 µM | inhibition at 100 µg/mL (stock) [3]: 95.9% | ACE inhibitory activity without gastrointestinal digestion (control) [3]: 80.27% | ACE inhibitory activity after digestion by pepsin [3]: 95.38%
Compound: CC(C)[C@H](NC(=O)[C@@H]1CCCN1C(=O)[C@H](CCC(=O)O)NC(=O)[C@H](Cc1c[nH]cn1)NC(=O)[C@H](C)N)C(=O)N[C@@H](CCCCN)C(=O)O [AHEPVK] (H-AHEPVK-OH)
Stability of peptide against gastrointestinal enzymes (SEC chromatograms) [2]: stable throughout gastrointestinal digestion; also recorded: confirmed the stability of AHEPVK against digestive enzymes; also recorded: remained stable following gastrointestinal digestion

IC50 [1]: 278 µM | inhibition at 100 µg/mL (stock) [3]: 96% | ACE inhibitory activity without gastrointestinal digestion (control) [3]: 67.08% | ACE inhibitory activity after digestion by pepsin [3]: 92.22%
Compound: CSCC[C@H](NC(=O)[C@H](CO)NC(=O)[C@@H]1CCCN1C(=O)CN)C(=O)N[C@@H](CCCNC(=N)N)C(=O)O [GPSMR] (H-GPSMR-OH)
Stability of peptide against gastrointestinal enzymes (SEC chromatograms) [2]: hydrolysed after digestion; also recorded: hydrolysed into smaller fragments

Compound: C[C@H](CS)C(=O)N1CCC[C@H]1C(=O)O [captopril]
Inhibition pattern against ACE [4]: competitive manner

Compound: GPCSR [peptide from sweet potato]
IC50 ([4]; peptides from sweet potato): 276 µM

Compound: GTEKC [peptide from sweet potato]
IC50 ([4]; peptides from sweet potato): 61.7 µM

Compound: LKPNM [pentapeptide from bonita fish]
IC50 [4, 5]: 2.4 µM

Compound: LRIPVA [peptide from spinach]
IC50 ([4]; peptide from spinach): 0.38 µM

Compound: PYVRYL [hexapeptide from milk]
IC50 [4, 5]: 2.4 µM
